Experimental data: the supplement of paper PMC10307832

How the values were obtained:
Test in all cases: relative viability (nuclei count vs DMSO), 5 days (fraction); higher = more cells survive
[1] = compound: CC[C@H](CO)Nc1nc(NCc2ccccc2)c2ncn(C(C)C)c2n1 [Seliciclib] + C[C@]1(O)C[C@@H](c2nc(-c3ccc4ccc(-c5ccccc5)nc4c3)c3c(N)nccn32)C1 [Linsitinib] (partner 1 µM)
Summary of the method: (§1)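 After 5 days of treatment, lung cancer cells in 1536-well plates were fixed and stained in a single step (final 0.05% Triton X-100, 1% formaldehyde, 1 ug/ml Hoechst) and their nuclei counted on 4× images. Treatment had been applied by pin tool the day after seeding as one drug alone or as a fixed anchor-drug dose with five library-drug doses (not always all listed) in √10 steps. Relative viability is the nuclei count of treated wells divided by that of vehicle wells, and values are medians of duplicate plates.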

[2] = compound: CC[C@H](CO)Nc1nc(NCc2ccccc2)c2ncn(C(C)C)c2n1 [Seliciclib] + Nc1ncn([C@H]2C[C@H](O)[C@@H](CO)O2)c(=O)n1 [Decitabine] (partner 2 µM)
Summary of the method: as §1

[3] = compound: CC[C@H](CO)Nc1nc(NCc2ccccc2)c2ncn(C(C)C)c2n1 [Seliciclib] + CS(=O)(=O)N1CCN(Cc2cc3nc(-c4cccc5[nH]ncc45)nc(N4CCOCC4)c3s2)CC1 [Pictilisib] (partner 1 µM)
Summary of the method: as §1

[4] = compound: CC[C@H](CO)Nc1nc(NCc2ccccc2)c2ncn(C(C)C)c2n1 [Seliciclib] + Cc1nc(NC(=O)N2CCC[C@H]2C(N)=O)sc1-c1ccnc(C(C)(C)C(F)(F)F)c1 [Alpelisib] (partner 2 µM)
Summary of the method: as §1

Cell Line	relative viability ([1]; first compound 0.08 µM)	relative viability ([1]; first compound 0.253 µM)	relative viability ([1]; first compound 0.8 µM)	relative viability ([1]; first compound 2.53 µM)	relative viability ([1]; first compound 8 µM)	relative viability ([2]; first compound 0.08 µM)	relative viability ([2]; first compound 0.253 µM)	relative viability ([2]; first compound 0.8 µM)	relative viability ([2]; first compound 2.53 µM)	relative viability ([2]; first compound 8 µM)	relative viability ([3]; first compound 0.08 µM)	relative viability ([3]; first compound 0.253 µM)	relative viability ([3]; first compound 0.8 µM)	relative viability ([3]; first compound 2.53 µM)	relative viability ([3]; first compound 8 µM)	relative viability ([4]; first compound 0.08 µM)	relative viability ([4]; first compound 0.253 µM)	relative viability ([4]; first compound 0.8 µM)	relative viability ([4]; first compound 2.53 µM)	relative viability ([4]; first compound 8 µM)
COR-L 105	1.04	0.748	0.943	0.91	0.926	0.568	0.664	0.648	0.605	0.557	0.379	0.379	0.371	0.32	0.36	0.994	0.808	1.05	1.04	0.748
LK-2	0.74	0.462	0.523	0.676	0.274	0.359	0.276	0.309	0.166	0.263	0.591	0.562	0.614	0.541	0.447	1.05	0.968	0.955	1.17	0.822
NCI-H727	0.306	0.245	0.222	0.226	0.251	0.874	0.88	0.82	0.441	0.861	0.43	0.338	0.197	0.232	0.296	0.571	0.696	0.49	0.526	0.538
RERF-LC-KJ	0.869	0.814	0.855	0.909	0.883	0.711	0.671	0.737	0.637	0.65	0.431	0.511	0.633	0.59	0.443	0.745	0.761	0.814	0.973	0.792
NCI-H2023	0.642	0.574	0.633	0.746	0.572	0.217	0.216	0.203	0.267	0.248	0.227	0.224	0.232	0.164	0.182	0.548	0.542	0.523	0.58	0.531
NCI-H322M	1.02	0.932	1.05	0.977	0.803	0.782	0.715	0.715	0.668	0.614	0.523	0.583	0.494	0.449	0.379	0.87	0.876	0.692	0.822	0.73
NCI-H1666	0.769	0.862	0.662	0.875	0.514	0.641	0.712	0.797	0.58	0.664	0.33	0.526	0.478	0.353	0.439	1.04	0.985	0.846	0.923	0.516
SW 900						0.45	0.403	0.457	0.478	0.346										
NCI-H2087	0.896	0.991	1	0.867	0.862	0.284	0.313	0.247	0.227	0.221	1.03	1.12	0.508	0.813	0.832	1.08	1.21	1.06	1.09	0.815
LU99A	0.565	0.466	0.474	0.497	0.494	0.914	0.777	0.978	0.837	0.739	0.349	0.301	0.374	0.229	0.284	0.491	0.518	0.452	0.359	0.416
HCC-366	0.538	0.448	0.557	0.836	0.36	0.357	0.297	0.333	0.414	0.297	0.12	0.137	0.106	0.109	0.163	0.367	0.302	0.342	0.344	0.371
EKVX	0.925	1.1	0.94	1.14	0.711	0.299	0.224	0.366	0.184	0.377	0.42	0.5	0.417	0.423	0.305	0.844	0.9	0.799	0.794	0.674
NCI-H522						0.699	0.545	0.659	0.645	0.611										
NCI-H1755	0.982	1.02	0.978	1.02	0.993	0.71	0.644	0.719	0.759	0.721	0.414	0.504	0.389	0.339	0.386	0.924	0.946	0.908	0.991	0.892
NCI-H647	1.22	1.12	1.11	1.19	0.718	0.314	0.235	0.562	0.453	0.452	0.367	0.45	0.25	0.296	0.248	0.952	1.1	0.978	1.15	0.618
LC-2-ad	0.884	0.94	0.756	0.827	0.607	0.752	0.95	0.717	0.812	0.721	0.487	0.572	0.34	0.205	0.0269	0.852	0.852	0.4	0.899	0.635
HCC-827	0.927	1	0.892	0.919	0.845	0.337	0.36	0.327	0.287	0.273	0.953	0.963	0.811	1.03	0.925	1.01	1.01	1	1.04	0.784
HCC-78	0.478	0.558	0.49	0.596	0.404	0.706	0.659	0.757	0.641	0.538	0.203	0.274	0.187	0.174	0.181	0.375	0.358	0.329	0.285	0.339
NCI-H2085	0.808	0.805	0.928	0.856	0.763	0.518	0.501	0.563	0.49	0.483	0.504	0.533	0.394	0.493	0.425	0.971	1.19	0.984	0.926	0.809

Cell Line	relative viability ([1]; first compound 0.08 µM)	relative viability ([1]; first compound 0.253 µM)	relative viability ([1]; first compound 0.8 µM)	relative viability ([1]; first compound 2.53 µM)	relative viability ([1]; first compound 8 µM)	relative viability ([2]; first compound 0.08 µM)	relative viability ([2]; first compound 0.253 µM)	relative viability ([2]; first compound 0.8 µM)	relative viability ([2]; first compound 2.53 µM)	relative viability ([2]; first compound 8 µM)	relative viability ([3]; first compound 0.08 µM)	relative viability ([3]; first compound 0.253 µM)	relative viability ([3]; first compound 0.8 µM)	relative viability ([3]; first compound 2.53 µM)	relative viability ([3]; first compound 8 µM)	relative viability ([4]; first compound 0.08 µM)	relative viability ([4]; first compound 0.253 µM)	relative viability ([4]; first compound 0.8 µM)	relative viability ([4]; first compound 2.53 µM)	relative viability ([4]; first compound 8 µM)
PC-14	0.922	0.921	0.936	0.994	0.845	0.211	0.228	0.222	0.252	0.25	0.622	0.67	0.69	0.808	0.513	0.86	0.871	0.878	0.909	0.854
NCI-H358	0.613	0.634	0.617	0.609	0.445	0.204	0.216	0.221	0.193	0.176	0.346	0.408	0.289	0.312	0.216	0.789	0.887	0.913	0.741	0.444
A-427	1.08	1.11	1.2	1.15	1.13	0.606	0.521	0.612	0.52	0.589	0.753	0.737	0.646	0.688	0.695	1.05	1.16	1.12	1.08	0.927
H3255	0.872	0.926	1.02	1.16	0.891	0.594	0.61	0.684	0.571	0.479	0.47	0.567	0.487	0.483	0.502	0.608	0.667	0.721	0.806	0.587
HCC-44	0.64	0.626	0.633	0.697	0.649	0.946	0.996	0.99	0.927	0.906	0.639	0.691	0.534	0.46	0.44	0.845	0.834	0.798	0.74	0.707
NCI-H1734	0.951	0.819	0.824	1.02	0.775	0.503	0.405	0.509	0.518	0.496	0.452	0.477	0.385	0.379	0.41	0.659	0.651	0.622	0.683	0.674
NCI-H2228	0.848	0.491	0.612	0.564	0.57						0.372	0.333	0.234	0.457	0.339	0.639	0.69	0.936	0.658	0.63
ABC-1	0.919	0.806	0.918	0.957	1.04	1.11	1.18	1.17		0.6	0.773	0.927	0.619	0.42	0.424	0.819	0.888	0.775	0.964	0.931
COR-L23	0.873	0.84	0.922	1.11	0.684	0.395	0.34	0.478	0.419	0.403	0.63	0.782	0.86	0.584	0.49	0.708	0.868	0.764	0.78	0.538
NCI-H661	0.545	0.542	0.543	0.518	0.451	0.552	0.597	0.549	0.511	0.435	0.362	0.404	0.375	0.295	0.354	0.736	0.781	0.653	0.437	0.5
ChaGo-K-1						0.519	0.472	0.509	0.516	0.475	0.766	0.533	0.638	0.513	0.378					
NCI-H1650						0.439	0.278	0.437	0.403	0.52	0.579	0.631	0.526	0.466	0.354					
EBC-1	0.911	0.836	0.942	0.88	0.794						0.449	0.407	0.387	0.354	0.343	0.901	0.88	0.895	0.828	0.616
NCI-H2170						0.453		0.452	0.537	0.442	0.306	0.255	0.286	0.243	0.336	0.801	0.585	0.824	0.904	0.834
NCI-H2342						0.668	0.637	0.736	0.649	0.747										
NCI-H1703	0.675	0.869	0.767	0.989	0.712						0.252	0.234	0.26	0.225	0.241	0.322	0.421	0.288	0.354	0.229
CAL-12T	0.87	0.977	0.744	0.742	0.673						0.304	0.566	0.39	0.303	0.221	1.11		0.86	1	0.946
NCI-H1648						0.486	0.615	0.605	0.45	0.473										
NCI-H1563	1.15	0.925	1.11	1.21	1.12						0.649	0.621	0.681	0.567	0.691	0.952	0.872	0.954	0.927	0.882
